Molecules are shown by their SMILES. Residues, ends and D or L forms follow the SMILES beside them.

The nature of data set [1]: Sweetening potency: taste comparison of aqueous solutions with sucrose control solution (2%, 5% or 10%) by a group of eight experienced people. The format is in vivo. The source says:
The sweetening potency of the compounds described in the examples has been evaluated by a group of eight experienced people. For this, the compound, in aqueous solution at varying concentrations, is compared, with respect to taste, to a control solution of sucrose of concentration 2%, 5%, or 10%. The sweetening potency of the test compound compared with sucrose then corresponds to the weight ratio between the compound and sucrose for equal sweetening intensity, i.e. when the sweet tastes of the solution of the test compound and the control solution of sucrose are considered by a majority of people to have the same sweetening intensity.

A short description of data set [2]: Accelerated ageing in acidic medium (phosphate buffer pH 3, 70° C.), HPLC of product remaining. Format: physicochemical. Particulars: aqueous solution, read-out: half-life (time corresponding to 50% degradation) (converted). How it is done:
(§1) The stability of the compounds of the invention and aspartame was measured by determining, using high performance liquid chromatography (HPLC), the amount of product remaining after an accelerated ageing in acidic medium (phosphate buffer at pH 3) or in neutral medium (phosphate buffer at pH 7) and at the temperature of 70° C. The stability of the compound thus tested is evaluated by its half-life (time corresponding to 50% degradation).
Given in the annexed FIG. 1 is a comparative diagram of the stability curves of aspartame (curve 1) and of the N--(3,3-dimethylbutyl)-L-aspartyl-D-α-aminobutyric acid N--(S)-1-phenyl-1-propanamide of the present invention (curve 2) obtained during an accelerated ageing by heating their solutions in acidic medium at pH 3 (phosphate buffer) at 70° C.

Data set [3] can be described thus: Sweetening comparison with aspartame (equivalent sweetness of solutions / soft drink). Format: in vivo. As to conditions: for concentration of aqueous solution of equivalent sweetening potency: 20 mg/L compound equivalent to 550 mg/L aspartame; for quantity of sweetening agent in one liter of soft drink for replacement: identical organoleptic qualities. How it is done:
From the fact of their high sweetening potency, another advantage of the compounds of the invention compared to aspartame is to allow, in their application to food products, the use of very low quantities of active agent. It is therefore for example that it is possible to replace, in one liter of soft drink, 550 mg of aspartame by about 20 mg of the N-(3,3-dimethylbutyl)-L-aspartyl-D-α-aminobutyric acid N--(S)-1-phenyl-1-propanamide of the invention, and to therefore reduce by about 27 times the quantities of sweetening agent consumed, always in maintaining the identical organoleptic qualities.

Data set [4] can be described thus: Accelerated ageing in neutral medium (phosphate buffer pH 7, 70° C.), HPLC of product remaining. Format: physicochemical. As to conditions: for half-life: phosphate buffer, read-out: half-life (time corresponding to 50% degradation) (converted). On the procedure: as §1
Given in the annexed FIG. 2 is a comparative diagram of the stability curves of aspartame (curve 1) and of the N-(3,3-dimethylbutyl)-L-aspartyl-D-α-aminobutyric acid N--(S)-1-phenyl-1-propanamide of the invention (curve 2) obtained during an accelerated ageing by heating their solutions in neutral media of pH 7 at 70° C.

The conditions of data set [5]: cited from earlier work.
Setting [6] is: with respect to a 2% sucrose solution.

Consider `CC[C@H](NC(=O)[C@H](NC(=O)[C@H](CC(=O)O)NCCC(C)(C)C)C(C)C)c1ccccc1` [N-(3,3-dimethylbutyl)-L-aspartyl-D-valine N--(S)-1-phenyl-1-propanamide], for which the Sweetening potency result in data set [1] (setting [6]) is recorded as “about 3,000 times that of sucrose on a weight basis”; in data set [1] (with respect to a 2% sucrose solution, listed as Y = (CH3)2 CH, R" = (S) CH(C2 H5) C6 H5), 3,000 times that of sucrose on a wei.
In the case of `COC[C@H](NC(=O)[C@H](NC(=O)[C@H](CC(=O)O)NCCC(C)(C)C)C(C)C)c1ccccc1` [N-(3,3-dimethylbutyl)-L-aspartyl-D-valine N--(S)-1-phenyl-2-methoxy-1-ethanamide], the Sweetening potency result in data set [1] (setting [6]) is reported as “about 4,000 times that of sucrose on a weight basis”; in data set [1] (with respect to a 2% sucrose solution, listed as Y = (CH3)2 CH, R" = (R) CH(CH2 OCH3)C6 H5) it was 4,000 times that of sucrose on a wei.
The term half-life denotes the time needed for the level to fall by half in the phase considered. In the case of `CC[C@H](NC(=O)[C@@H](CC)NC(=O)[C@H](CC(=O)O)NCCC(C)(C)C)c1ccccc1` [N-(3,3-dimethylbutyl)-L-aspartyl-D-α-aminobutyric acid N--(S)-1-phenyl-1-propanamide], the half-life was about 72 h in data set [2] and about 288 h in data set [4] (pH 7, 70° C.). Also, the “concentration of aqueous solution of equivalent sweetening potency” value in data set [3] is recorded as 20 mg/L. Also, the “sweetening potency compared with aspartame” value in data set [3] (20 mg/L of compound vs 550 mg/L of aspartame, aqueous solution) is “about 27 times”. In addition, in data set [3], the “quantity of sweetening agent in one liter of soft drink for replacement” value is “about 20 mg”. In addition, in data set [3] (soft drink, vs aspartame), the “reduction of quantity of sweetening agent consumed vs aspartame” value is recorded as “about 27 times”. For the same molecule, the “stability compared with aspartame” value in data set [4] (pH 7, 70° C., ratio to aspartame) is “about 1,700 times”. For the same molecule, the Sweetening potency in data set [1] (by comparison with a 5% solution of sucrose) was ~6,000 times that of sucrose on a wei; in data set [1] (by comparison with a 10% solution of sucrose) it was ~5,000 times that of sucrose on a wei; in data set [1] (with respect to a 2% sucrose solution, listed as Y = C2 H5, R" = (S) CH(C2 H5) C6 H5), 8,000 times that of sucrose on a wei.
For `CC[C@@H](NC(=O)[C@H](CC(=O)O)NCCC(C)(C)C)C(=O)N[C@@H](COC)c1ccccc1` [N-(3,3-dimethylbutyl)-L-aspartyl-D-α-aminobutyric acid N--(S)-1-phenyl-2-methoxy-1-ethanamide], the Sweetening potency entry in data set [1] (setting [6]) is reported as “about 4,000 times that of sucrose on a weight basis”; in data set [1] (with respect to a 2% sucrose solution, listed as Y = C2 H5, R" = (R) CH(CH2 OCH3)C6 H5), 4,000 times that of sucrose on a wei.
`C[C@@H](NC(=O)[C@H](CC(=O)O)NCCC(C)(C)C)C(=O)NC(C1CC1)C1CC1` [N-(3,3-dimethylbutyl)-L-aspartyl-N-(dicyclopropylcarbinyl)-D-alaninamide]: in data set [5] (setting [6]), the “sweetening potency (prior art, FR 92 13615)” value was 2,500 times that of sucrose on a weight basis.
Turning to `CC[C@@H](NC(=O)[C@H](CC(=O)O)NCCC(C)(C)C)C(=O)N[C@@H](C)c1ccccc1` [Y = C2 H5, R" = (S) CH(CH3)C6 H5], the Sweetening potency in data set [1] (setting [6]) was 2,000 times that of sucrose on a wei.
For the molecule `COC(=O)[C@H](Cc1ccccc1)NC(=O)[C@@H](N)CC(=O)O` [aspartame, L-aspartyl-L-phenylalanine methyl ester, reference compound] (HELM PEPTIDE1{D.F.[CO[*:1]]}$$$$V2.0), the half-life in data set [2] is about 24 h; in data set [4] (pH 7, 70° C.), 0.167 h. In addition, in data set [3], the “concentration of aqueous solution of equivalent sweetening potency” value is given as 550 mg/L. Besides, in data set [3], the “quantity of sweetening agent in one liter of soft drink for replacement” value was 550 mg. Further, the “stability in neutral solution” value in data set [4] (neutral solution, pH about 7) is on record as “very little stable”. Moreover, the “sweetening potency (prior art)” value in data set [5] (aspartame, background, sucrose concentration not stated) is recorded as 120 to 180 times that of sucrose on a weight basis.

The record behind these values is patent US5997933A, “N-(3,3-dimethylbutyl)-L-aspartyl-D-α-aminoalkanoic acid N-(S)-1-phenyl-1-alkanamide useful as a sweetening agent” (priority 1996, dated 1999).
